Test results published in US20240368203A1, “DEGRADATION OF (EGFR) BY CONJUGATION OF EGFR INHIBITORS WITH E3 LIGASE LIGAND AND METHODS OF USE” (BeiGene, Ltd., priority 2022, published 2024).

Legend:
EGFR-L858R/T790M/C797S = molecular target: T1, EGFR-L858R/T790M/C797S (Homo sapiens, UniProt P00533, C797S/L858R/T790M); test: EGFR degradation HTRF assay in H1975-clone #25 cells; assay type: cell-based; conditions: 16 h treatment; for DC50: H1975-clone #25 (L858R/T790M/C797S) cells, IC50 (DC50), read-out: DC50(nM) H1975 # 25-LTC; for Dmax: NCI-H1975, H1975-clone #25 (L858R/T790M/C797S) cells, maximum percentage of inhibition (degradation), read-out: Dmax (%) H1975 # 25-LTC
T1 construct: expressed in transfected cells; host or cells: H1975-clone #25 (lentiviral over-expression, endogenous EGFR knocked out)
Description: (§1) H1975-clone #28(Del19/T790M/C797S) and H1975-clone #25(L858R/T790M/C797S). EGFR-Del19/T790M/C797S and EGFR-L858R/T790M/C797S were stably expressed in H1975 cell lines by lentivirus-mediated over-expression, respectively. The EGFR over-expressed cells then underwent knockout, in which the EGFR targeting sgRNA was designed to only target the endogenous EGFR copies and preserve the exogenous EGFR copies. Followed by knockout, the edited H1975 cells were seeded in 96 well plates at the concentration of […], cultured for about 2 weeks to allow single clones formation. The formed clones were screened by DNA sequencing and whole exon sequencing analysis for the desired edition.
(§2) H1975-clone #28, and H1975-clone #25 were finally confirmed as homozygous Del19/T790M/C797S EGFR, and L858R/T790M/C797S EGFR clones, respectively.
(§3) H1975-#25 and H1975-#28 cells are treated with compounds diluted in 0.2% DMSO cell culture medium on day 2, incubate for 16 h, 37° C., 5% CO2. the final concentration of compounds in all assay is start with 10 uM, 5-fold dilution, total 8 doses were included.
(§4) After 16 h treatment, add HTRF lysis buffer to each well; seal the plate and incubate 1 hour at room temperature on a plate shaker; Once the cells are lysed, 16 μL of cell lysate are transferred to a PE 384-well HTRF detection plate; 4 μL of pre-mixed HTRF antibodies are added to each well; Cover the plate with a plate sealer, spin 1000 rpm for 1 min, Incubate overnight at room temperature; Read on BMG PheraStar with HTRF protocol (337 nm-665 nm-620 nm).
(§5) The inhibition (degradation) percentage of the compound was calculated by the following equation:
(§6) Inhibition percentage of Compound=100−100×(Signal−low control)/(High control−low control),
(§7) The IC50 (DC50) value of a compound can be obtained by fitting the following equation
(§8) Wherein, X and Y are known values, and IC50, Hillslope, Top and Bottom are the parameters obtained by fitting with software. Y is the inhibition percentage (calculated from the equation), X is the concentration of the compound; IC50 is the concentration of the compound when the 50% inhibition is reached. The smaller the IC50 value is, the stronger the inhibitory ability of the compound is. Vice versa, the higher the IC50 value is, the weaker the ability the inhibitory ability of the compound is; Hillslope represents the slope of the fitted curve, generally around 1 *; Bottom represents the minimum value of the curve obtained by data fitting, which is generally 0%±20%; Top represents the maximum value of the curve obtained by data fitting, which is generally 100%±20%. The experimental data were fitted by calculating and analyzing with Dotmatics data analysis software.

EGFR-Del19/T790M/C797S = test: EGFR degradation HTRF assay in H1975-clone #28 cells; assay type: cell-based; conditions: H1975-clone #28 (Del19/T790M/C797S) cells, 16 h treatment; for DC50: IC50 (DC50), read-out: DC50(nM) H1975 # 28 DTC; for Dmax (%) H1975 # 28 DTC: maximum percentage of inhibition (degradation)
Description: as §1, §2, §3, §4, §5, §6, §7, §8

T1 sequence (P00533 25-1210 T790M/C797S/L858R): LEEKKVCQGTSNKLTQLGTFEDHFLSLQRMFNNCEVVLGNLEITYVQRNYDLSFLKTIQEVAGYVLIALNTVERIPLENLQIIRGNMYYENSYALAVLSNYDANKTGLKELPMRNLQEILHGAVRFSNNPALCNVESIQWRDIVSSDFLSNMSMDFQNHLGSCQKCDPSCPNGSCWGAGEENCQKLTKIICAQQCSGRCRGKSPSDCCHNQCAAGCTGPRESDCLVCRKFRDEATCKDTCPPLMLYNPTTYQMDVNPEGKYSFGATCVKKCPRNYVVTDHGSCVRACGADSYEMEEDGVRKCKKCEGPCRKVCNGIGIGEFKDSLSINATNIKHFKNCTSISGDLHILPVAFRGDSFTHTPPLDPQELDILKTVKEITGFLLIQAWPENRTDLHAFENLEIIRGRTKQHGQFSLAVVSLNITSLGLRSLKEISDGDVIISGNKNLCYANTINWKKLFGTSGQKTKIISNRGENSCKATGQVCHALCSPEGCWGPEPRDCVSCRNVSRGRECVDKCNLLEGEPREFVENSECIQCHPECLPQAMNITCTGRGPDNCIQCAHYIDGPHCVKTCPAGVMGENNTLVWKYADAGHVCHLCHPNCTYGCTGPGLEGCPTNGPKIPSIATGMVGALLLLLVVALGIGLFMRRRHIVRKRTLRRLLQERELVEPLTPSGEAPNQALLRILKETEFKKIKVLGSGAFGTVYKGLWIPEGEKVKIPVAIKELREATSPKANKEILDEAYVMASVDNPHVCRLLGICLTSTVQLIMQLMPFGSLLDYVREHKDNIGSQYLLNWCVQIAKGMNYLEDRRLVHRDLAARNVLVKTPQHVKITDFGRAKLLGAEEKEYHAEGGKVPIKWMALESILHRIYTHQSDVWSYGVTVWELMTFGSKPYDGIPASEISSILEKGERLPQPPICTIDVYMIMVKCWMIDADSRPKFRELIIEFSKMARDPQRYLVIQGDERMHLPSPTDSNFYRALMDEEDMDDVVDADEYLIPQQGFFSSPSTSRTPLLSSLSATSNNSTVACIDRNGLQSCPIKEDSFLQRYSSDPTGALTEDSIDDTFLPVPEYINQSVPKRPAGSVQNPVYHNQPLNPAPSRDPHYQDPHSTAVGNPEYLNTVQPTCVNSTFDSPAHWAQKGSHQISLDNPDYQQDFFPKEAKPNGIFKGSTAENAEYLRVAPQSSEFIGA

## CCc1cc(Nc2ncc(Br)c(Nc3ccc4nc(C)c(F)cc4c3P(C)(C)=O)n2)c(OC)cc1N1CCC2(CCN(CCc3cc(F)c([C@H]4CCC(=O)NC4=O)c(F)c3)CC2)CC1 [Example 6, (R)-3-(4-(2-(9-(4-((5-bromo-4-((5-(dimethylphosphoryl)-3-fluoro-2-methylquinolin-6-yl)amino)pyrimidin-2-yl)amino)-2-ethyl-5-methoxyphenyl)-3,9-diazaspiro[5.5]undecan-3-yl)ethyl)-2,6-difluorophenyl)piperidine-2,6-dione]
EGFR-L858R/T790M/C797S
  DC50: 9 nM
  Dmax: 89%
EGFR-Del19/T790M/C797S
  DC50: 3.1 nM
  Dmax (%) H1975 # 28 DTC: 80%

## CCc1cc(Nc2ncc(Br)c(Nc3ccc4nc(C)c(F)cc4c3P(C)(C)=O)n2)c(OC)cc1N1CCC(N2CCN(C3CN(c4cc(F)c([C@H]5CCC(=O)NC5=O)c(F)c4)C3)CC2)CC1 [Example 8, (R)-3-(4-(3-(4-(1-(4-((5-bromo-4-((5-(dimethylphosphoryl)-3-fluoro-2-methylquinolin-6-yl)amino)pyrimidin-2-yl)amino)-2-ethyl-5-methoxyphenyl)piperidin-4-yl)piperazin-1-yl)azetidin-1-yl)-2,6-difluorophenyl)piperidine-2,6-dione]
EGFR-L858R/T790M/C797S
  DC50: 1.6 nM
  Dmax: 87%
EGFR-Del19/T790M/C797S
  DC50: 0.6 nM
  Dmax (%) H1975 # 28 DTC: 80%

## CCc1cc(Nc2ncc(Cl)c(Nc3ccc4nc(C)c(F)cc4c3P(C)(C)=O)n2)c(OC)cc1N1CCC(N2CCC(N3CCN(c4cc(F)c([C@H]5CCC(=O)NC5=O)c(F)c4)CC3)CC2)CC1 [Example 12, (R)-3-(4-(4-(1′-(4-((5-chloro-4-((5-(dimethylphosphoryl)-3-fluoro-2-methylquinolin-6-yl)amino)pyrimidin-2-yl)amino)-2-ethyl-5-methoxyphenyl)-[1,4′-bipiperidin]-4-yl)piperazin-1-yl)-2,6-difluorophenyl)piperidine-2,6-dione]
EGFR-L858R/T790M/C797S
  DC50: 2.5 nM
  Dmax: 92%
EGFR-Del19/T790M/C797S
  DC50: 2.9 nM
  Dmax (%) H1975 # 28 DTC: 91%

## CCc1ncc2c(P(C)(C)=O)c(Nc3nc(Nc4cc(CC)c(N5CCC(N6CC(N7CCC(c8cc(F)c([C@H]9CCC(=O)NC9=O)c(F)c8)CC7)C6)CC5)cc4OC)ncc3Br)ccc2n1 [Example 13, (R)-3-(4-(1-(1-(1-(4-((5-bromo-4-((5-(dimethylphosphoryl)-2-ethylquinazolin-6-yl)amino)pyrimidin-2-yl)amino)-2-ethyl-5-methoxyphenyl)piperidin-4-yl)azetidin-3-yl)piperidin-4-yl)-2,6-difluorophenyl)piperidine-2,6-dione]
EGFR-L858R/T790M/C797S
  DC50: 1.8 nM
  Dmax: 94%
EGFR-Del19/T790M/C797S
  DC50: 0.7 nM
  Dmax (%) H1975 # 28 DTC: 92%

## CCc1ccc2c(P(C)(C)=O)c(Nc3nc(Nc4cc(CC)c(N5CCC(N6CC(N7CCC(c8cc(F)c([C@H]9CCC(=O)NC9=O)c(F)c8)CC7)C6)CC5)cc4OC)ncc3Br)ccc2n1 [Example 14, (R)-3-(4-(1-(1-(1-(4-((5-bromo-4-((5-(dimethylphosphoryl)-2-ethylquinolin-6-yl)amino)pyrimidin-2-yl)amino)-2-ethyl-5-methoxyphenyl)piperidin-4-yl)azetidin-3-yl)piperidin-4-yl)-2,6-difluorophenyl)piperidine-2,6-dione]
EGFR-L858R/T790M/C797S
  DC50: 2.1 nM
  Dmax: 91%
EGFR-Del19/T790M/C797S
  DC50: 1.9 nM
  Dmax (%) H1975 # 28 DTC: 89%

## CCOc1cc(N2CCC(N3CC(N4CCC(c5cc(F)c([C@H]6CCC(=O)NC6=O)c(F)c5)CC4)C3)CC2)c(CC)cc1Nc1ncc(Cl)c(Nc2ccc3nc(C)c(F)cc3c2P(C)(C)=O)n1 [Example 15, (R)-3-(4-(1-(1-(1-(4-((5-chloro-4-((5-(dimethylphosphoryl)-3-fluoro-2-methylquinolin-6-yl)amino)pyrimidin-2-yl)amino)-5-ethoxy-2-ethylphenyl)piperidin-4-yl)azetidin-3-yl)piperidin-4-yl)-2,6-difluorophenyl)piperidine-2,6-dione]
EGFR-L858R/T790M/C797S
  DC50: 3.3 nM
  Dmax: 94%
EGFR-Del19/T790M/C797S
  DC50: 2.7 nM
  Dmax (%) H1975 # 28 DTC: 95%

## CCc1cc(Nc2ncc(Br)c(Nc3ccc4nc(C)c(F)cc4c3P(C)(C)=O)n2)c(OC)cc1N1CCC(N2CCC3(CCN(c4cc(F)c([C@H]5CCC(=O)NC5=O)c(F)c4)C3)C2)CC1 (stereo partly drawn) [Example 17, (3R)-3-(4-(7-(1-(4-((5-bromo-4-((5-(dimethylphosphoryl)-3-fluoro-2-methylquinolin-6-yl)amino)pyrimidin-2-yl)amino)-2-ethyl-5-methoxyphenyl)piperidin-4-yl)-2,7-diazaspiro[4.4]nonan-2-yl)-2,6-difluorophenyl)piperidine-2,6-dione]
EGFR-L858R/T790M/C797S
  DC50: 2.9 nM
  Dmax: 87%
EGFR-Del19/T790M/C797S
  DC50: 1.7 nM
  Dmax (%) H1975 # 28 DTC: 92%

## CCc1ccc2c(P(C)(C)=O)c(Nc3nc(Nc4cc(CC)c(N5CCC(N6CCN(C7CN(c8cccc9c8n(C)c(=O)n9C8CCC(=O)NC8=O)C7)CC6)CC5)cc4OC)ncc3Br)ccc2n1 (centres unmarked) [Example 21, 3-(4-(3-(4-(1-(4-((5-bromo-4-((5-(dimethylphosphoryl)-2-ethylquinolin-6-yl)amino)pyrimidin-2-yl)amino)-2-ethyl-5-methoxyphenyl)piperidin-4-yl)piperazin-1-yl)azetidin-1-yl)-3-methyl-2-oxo-2,3-dihydro-1H-benzol[d]imidazol-1-yl)piperidine-2,6-dione]
EGFR-L858R/T790M/C797S
  DC50: 1.8 nM
  Dmax: 78%
EGFR-Del19/T790M/C797S
  DC50: 0.6 nM
  Dmax (%) H1975 # 28 DTC: 77%

## CCc1cc(Nc2ncc(Br)c(Nc3ccc4nc(C)c(F)cc4c3P(C)(C)=O)n2)c(OC)cc1N1CCC(N2CCN(C3CN(c4cccc5c4n(C)c(=O)n5C4CCC(=O)NC4=O)C3)CC2)CC1 (centres unmarked) [Example 22, 3-(4-(3-(4-(1-(4-((5-bromo-4-((5-(dimethylphosphoryl)-3-fluoro-2-methylquinolin-6-yl)amino)pyrimidin-2-yl)amino)-2-ethyl-5-methoxyphenyl)piperidin-4-yl)piperazin-1-yl)azetidin-1-yl)-3-methyl-2-oxo-2,3-dihydro-1H-benzo[d]imidazol-1-yl)piperidine-2,6-dione]
EGFR-L858R/T790M/C797S
  DC50: 0.9 nM
  Dmax: 83%
EGFR-Del19/T790M/C797S
  DC50: 0.6 nM
  Dmax (%) H1975 # 28 DTC: 74%

## CCc1ncc2c(P(C)(C)=O)c(Nc3nc(Nc4cc(CC)c(N5CCC(N6CCN(C7CN(c8cccc9c8n(C)c(=O)n9C8CCC(=O)NC8=O)C7)CC6)CC5)cc4OC)ncc3Br)ccc2n1 (centres unmarked) [Example 23, 3-(4-(3-(4-(1-(4-((5-bromo-4-((5-(dimethylphosphoryl)-2-ethylquinazolin-6-yl)amino)pyrimidin-2-yl)amino)-2-ethyl-5-methoxyphenyl)piperidin-4-yl)piperazin-1-yl)azetidin-1-yl)-3-methyl-2-oxo-2,3-dihydro-1H-benzo[d]imidazol-1-yl)piperidine-2,6-dione]
EGFR-L858R/T790M/C797S
  DC50: 0.9 nM
  Dmax: 80%
EGFR-Del19/T790M/C797S
  DC50: 0.6 nM
  Dmax (%) H1975 # 28 DTC: 74%

## CCc1cc(Nc2ncc(Br)c(Nc3ccc4nc(C)c(F)cc4c3P(C)(C)=O)n2)c(OC)cc1N1CCC(N2CCN(C(=O)C3CN(c4ccc(F)c5c4n(C)c(=O)n5[C@H]4CCC(=O)NC4=O)C3)CC2)CC1 [Example 24, (S)-3-(4-(3-(4-(1-(4-((5-bromo-4-((5-(dimethylphosphoryl)-3-fluoro-2-methylquinolin-6-yl)amino)pyrimidin-2-yl)amino)-2-ethyl-5-methoxyphenyl)piperidin-4-yl)piperazine-1-carbonyl)azetidin-1-yl)-7-fluoro-3-methyl-2-oxo-2,3-dihydro-1H-benzo[d]imidazol-1-yl)piperidine-2,6-dione]
EGFR-L858R/T790M/C797S
  DC50: 1.4 nM
  Dmax: 88%
EGFR-Del19/T790M/C797S
  DC50: 0.6 nM
  Dmax (%) H1975 # 28 DTC: 87%
